Like-named read-outs stand apart in the source and are kept apart here.
Molecular target: T1, human TSHR (Homo sapiens, UniProt P16473)
T1 construct: expressed in transfected cells
Assay: Homogeneous Time Resolved Fluorescence (HTRF) cAMP assay, TSHR cell line
Assay type: cell-based
Conditions: for AC50: TSHR cell line, 30 minute incubation; for Emax: read-out: Maximum Activity compared to TSH, 100% activity = response of 30 mU/ml TSH, 0% = DMSO control; for Maximum Activity compared to TSH: 100% activity = response of 30 mU/ml TSH, 0% = DMSO control, in %; call rule not given here
Description: Generation of Stable Cell-Lines Expressing TSHR, LHCGR or FSHR.
cDNA for human TSHR was amplified by PCR from hTSHR-pSVL (1) and inserted into the pcDNA3.1(−)/hygromycin vector using restriction sites XhoI and BamHI. cDNA for human LHCGR was amplified by PCR from hLHR-pGS5 (2) and was inserted into the pcDNA3.1(+)/hygromycin vector using restriction sites BamHI and XhoI. The FSHR cDNA in pcDNA3.1 was obtained from the Missouri S&T cDNA Resource Center (www.cDNA.org) and was subcloned into the pcDNA3.1(−)/hygromycin vector. Constructs were confirmed by sequencing (MWG Biotech). HEK-EM 293 cells were transfected with the cDNA of TSHR, LHCGR or FSHR using FuGENE 6 Transfection reagent (Roche Diagnostics) according to the manufacturer's protocol. Two days after transfection cells were passaged and grown in Dulbecco's modified Eagle's Medium (DMEM) supplemented with 10% fetal bovine serum, 100 units/ml penicillin and 10 μg/ml streptomycin (Life Technologies Inc.) and with hygromycin (250 μg/ml) as a selection marker. After 7 to 10 days hygromycin-resistant clones were selected, and after a few days of further growth submitted for a cAMP assay to identify clones that stably express the appropriate receptor. Cell Culture. Cells stably expressing TSHR, LHCGR or FSHR and parental HEK 293 cells were maintained in DMEM medium containing 10% FBS, 100 units/ml Penicillin, 100 μg/ml Streptomycin, at 37° C. in 5% CO2. For the cells lines stably expressing TSHR, LHCGR or FSHR, additional 250 μg/ml Hygromycin was added during the cell culture. The cells were seeded at a density of 3 to 4 million cells in a T175 flask containing 35 ml of media and were allowed to grow for 3 days to reach 80-90% confluence. A flask of HEK 293 cells at this density generally yielded 30 million cells total. Homogeneous Time Resolved Fluorescence (HTRF) cAMP Assay. Compounds were assayed using a HTRF cAMP detection kit (Cisbio, Bedford, Mass.) on both TSHR cell line and parental cell line. Briefly, 750 cells were plated in 2.5 μl/well of complete media (DMEM containing 10% FCS) in 1536 well solid bottom white plates and 20 nl/well compound in DMSO solution or controls was added. Following 30 minute incubation at room temperature, 2.5 μl/well of labeled d2 cAMP and 2.5 μl/well of anti-cAMP antibody (both diluted 1:20 in lysis buffer) were added to each well using a flying reagent dispenser (Aurora Discovery, San Diego). Plates were measured using the Envision plate reader (PerkinElmer, Boston, Mass.) with excitation at 330 nm and emissions of 615 nm and 660 nm. Compound Preparation. […] Data Analysis. […] The EC50 values of compounds were calculated from the concentration-response curves by nonlinear regression analysis using Prism software (GraphPad Software, San Diego, Calif.). Confirmatory cAMP Assay and Test for Selectivity Towards TSHR 50,000 cells/well were plated in complete media (DMEM containing 10% FCS) in 96 well plates. […] Following aspiration of the medium after incubation with compounds, cells were lysed using lysis buffer of the cAMP-Screen Direct™ System (Applied Biosystems, Cat # CSD200). The cAMP content of the cell lysate was determined using the manufacturer's protocol. […] Below is a List of Compounds that were Assayed via the Homogeneous Time Resolved Fluorescence (HTRF) cAMP Assay.

T1 sequence (P16473 21-764): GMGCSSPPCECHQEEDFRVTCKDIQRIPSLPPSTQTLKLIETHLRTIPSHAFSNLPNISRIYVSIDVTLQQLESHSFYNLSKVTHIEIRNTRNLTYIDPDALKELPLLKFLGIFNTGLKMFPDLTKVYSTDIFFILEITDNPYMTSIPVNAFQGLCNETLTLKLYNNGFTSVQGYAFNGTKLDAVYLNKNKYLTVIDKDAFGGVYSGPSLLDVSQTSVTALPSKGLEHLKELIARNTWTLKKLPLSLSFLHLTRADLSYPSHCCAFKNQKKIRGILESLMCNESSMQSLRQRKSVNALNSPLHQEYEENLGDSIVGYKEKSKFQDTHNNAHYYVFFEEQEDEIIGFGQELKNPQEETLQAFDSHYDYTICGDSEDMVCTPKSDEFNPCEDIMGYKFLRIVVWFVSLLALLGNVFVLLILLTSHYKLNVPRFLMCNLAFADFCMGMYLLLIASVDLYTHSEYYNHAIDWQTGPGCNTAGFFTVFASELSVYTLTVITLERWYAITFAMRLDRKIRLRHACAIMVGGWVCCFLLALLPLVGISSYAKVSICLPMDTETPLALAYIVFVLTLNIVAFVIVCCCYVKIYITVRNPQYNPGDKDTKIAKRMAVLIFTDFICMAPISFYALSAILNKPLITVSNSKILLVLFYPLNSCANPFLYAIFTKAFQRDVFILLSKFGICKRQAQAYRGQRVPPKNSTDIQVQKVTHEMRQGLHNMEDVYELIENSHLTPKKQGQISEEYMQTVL

| Compound | AC50 (HTRF cAMP, read-out: AC50) [µM] | Maximum Activity compared to TSH | AC50 (HTRF cAMP) | further results |
| --- | --- | --- | --- | --- |
| COc1ccc(CNc2ccccc2C(=O)NCc2ccccc2)cc1COc1ccc(NC(C)=O)cc1 [Structure 109] | 17.8 |  |  | Emax: 47.5% |
| COc1ccc(CNc2ccccc2C(=O)NCc2ccccc2)cc1COc1ccc(NC(C)=O)cc1 [Structure 134] | 8.91 | 30.50 |  |  |
| COc1ccc(C2Cc3ccccc3C(=O)N2Cc2ccccc2)cc1COc1ccc(NC(C)=O)cc1 (stereo not drawn) [Structure 76] | 6.31 | 64.77 |  |  |
| COc1ccc([C@H]2[C@H](c3ccccc3)C(=O)N2Cc2ccccc2)cc1COc1ccc(NC(C)=O)cc1 [Structure 90] |  | 110.89 |  |  |
| COc1ccc(-c2nc3ccccc3c(=O)n2Cc2ccc(CNC(=O)CO)cc2)cc1COc1ccc(NC(C)=O)cc1 [Structure 126] | 17.8 | 36.00 |  |  |
| COc1ccc(C2Nc3ccccc3C(=O)N2Cc2cccc(C(F)(F)F)c2)cc1COc1ccc(NC(C)=O)cc1 (stereo not drawn) [Structure 60] | 6.31 | 189.97 |  |  |
| CCCCN1C(=O)c2ccccc2NC1c1ccc(OC)c(COc2ccc(NC(C)=O)cc2)c1 (stereo not drawn) [Structure 16] | 20 | 97.95 |  |  |
| CCCCN1C(=O)c2ccccc2NC1c1ccc(OC)c(COc2ccc(NC(C)=O)cc2)c1 (stereo not drawn) [Structure 39] | 20 | 123.60 |  |  |
| O=C1CC(c2ccco2)CC2=C1C(c1ccncc1)n1nc(C(F)(F)F)nc1C2 (stereo not drawn) [Structure 244] |  |  | inactive |  |
| COc1ccc(C2Nc3ccccc3C(=O)N2Cc2ccccc2)cc1COc1ccc(NC(=O)c2ccccc2)cc1 (stereo not drawn) [Structure 264] |  |  | inactive |  |
| COc1ccc(C2Nc3ccccc3C(=O)N2Cc2cccc(Cl)c2)cc1COc1ccc(NC(C)=O)cc1 (stereo not drawn) [Structure 12] | 3.98 | 91.43 |  |  |
| O=C(c1ccccc1O)N(Cc1ccccc1)Cc1cccs1 [Structure 142] | 20 |  |  | Emax: 34% |
| COc1ccc(C2Nc3ccccc3C(=O)N2Cc2ccccc2C)cc1COc1ccc(NC(C)=O)cc1 (stereo not drawn) [Structure 139] |  |  | inactive |  |
| COc1ccc(C2Nc3ccccc3C(=O)N2Cc2ccccc2)cc1COc1ccc(F)cc1 (stereo not drawn) [Structure 152] |  |  | inactive |  |
| O=C1CC(c2ccco2)CC2=C1C(c1cccnc1)n1nc(C(F)(F)F)nc1N2 (stereo not drawn) [Structure 147] |  |  | inactive |  |
| COc1ccc(C2Nc3ccccc3C(=O)N2Cc2ccccc2)cc1COc1ccc(NC(C)=O)cc1 (single isomer, unassigned) [Structure 62] |  | 241.92 |  | AC50 (AC50, HTRF cAMP): 7.08 µM |
| COc1ccc(C2Nc3ccccc3C(=O)N2Cc2ccc(C(C)(C)C)cc2)cc1COc1ccc(NC(C)=O)cc1 (stereo not drawn) [Structure 175] |  |  | inactive |  |
| O=C1CC(c2ccco2)CC2=C1C(c1ccc(O)cc1)n1nc(C(F)(F)F)nc1N2 (stereo not drawn) [Structure 174] |  |  | inactive |  |
| COc1ccc(C2Nc3ccccc3C(=O)N2Cc2ccco2)cc1COc1ccc(NC(C)=O)cc1 (stereo not drawn) [Structure 53] | 12.6 | 141.76 |  |  |
| COc1ccc(C2Nc3ccc(NC(=O)CO)cc3C(=O)N2Cc2cccc(Cl)c2)cc1COc1ccc(NC(C)=O)cc1 (stereo not drawn) [Structure 43] | 10 | 128.45 |  |  |
| COc1ccc(-c2nc3ccccc3c(=O)n2Cc2ccccc2)cc1COc1ccc(NC(C)=O)cc1 [Structure 64] | 7.94 | 70.53 |  |  |
| COc1ccc(C2Nc3ccccc3C(=O)N2Cc2ccccc2)cc1COc1ccccc1OC (stereo not drawn) [Structure 172] |  |  | inactive |  |
| COc1ccc(CN(Cc2ccccc2)C(=O)c2ccccc2)cc1COc1ccc(NC(C)=O)cc1 [Structure 57] | 14.1 | 100.67 |  |  |
| COc1ccc(CN(Cc2ccccc2)C(=O)C2CC2)cc1COc1ccc(NC(C)=O)cc1 [Structure 68] | 22.4 |  |  | Emax: 74.8% |

| Compound | AC50 (HTRF cAMP, read-out: AC50) [µM] | Maximum Activity compared to TSH | AC50 (HTRF cAMP) | further results |
| --- | --- | --- | --- | --- |
| O=C1c2ccccc2NC(c2ccccc2)N1Cc1ccco1 (stereo not drawn) [Structure 254] |  |  | inactive |  |
| COc1ccc(C2Nc3ccccc3C(=O)N2Cc2ccc(C(F)(F)F)cc2)cc1COc1ccc(NC(C)=O)cc1 (stereo not drawn) [Structure 197] | 2.82 |  |  | Emax: 17% |
| COc1ccc(C2Nc3ccccc3C(=O)N2Cc2ccccc2)cc1COc1ccc(Cl)cc1 (stereo not drawn) [Structure 140] |  |  | inactive |  |
| COc1ccc(CN(Cc2ccccc2)C(=O)C2CC2)cc1COc1ccc(NC(C)=O)cc1 [Structure 81] | 15.8 | 76.98 |  |  |
| COc1ccc(C2Nc3ccccc3C(=O)N2Cc2ccccc2OC)cc1COc1ccc(NC(C)=O)cc1 (stereo not drawn) [Structure 279] | 4.47 | 20.50 |  |  |
| COc1ccc(C2Nc3ccccc3C(=O)N2Cc2ccccc2)cc1COc1cccc(C(F)(F)F)c1 (stereo not drawn) [Structure 208] |  |  | inactive |  |
| Nc1ccccc1C(=O)NCc1ccco1 [Structure 153] |  |  | inactive |  |
| COc1ccc(C2Nc3ccccc3C(=O)N2Cc2ccco2)cc1COc1cccc(NC(C)=O)c1 (stereo not drawn) [Structure 151] |  |  | inactive |  |
| COc1ccc(-c2nc3ccc(NC(C)=O)cc3c(=O)n2Cc2cccc(Cl)c2)cc1COc1ccc(NC(C)=O)cc1 [Structure 110] | 22.4 | 48.00 |  |  |
| O=C(c1ccccc1O)N(Cc1ccccc1)Cc1ccccc1 [Structure 129] | 28.2 | 51.77 |  |  |
| COc1ccc(C2Nc3ccccc3C(=O)N2Cc2ccccc2)cc1COc1ccc(C(N)=O)cc1 (stereo not drawn) [Structure 270] |  |  | inactive |  |
| COc1ccc(C2Nc3ccccc3C(=O)N2Cc2ccco2)cc1COc1ccc(NC(C)=O)cc1 (stereo not drawn) [Structure 42] | 14.1 | 131.51 |  |  |
| COc1ccc(OCc2cc(C3Nc4ccccc4C(=O)N3Cc3ccccc3)ccc2OC)cc1 (stereo not drawn) [Structure 87] | 3.98 |  |  | Emax: 38% |
| COc1ccc(C2Nc3ccccc3C(=O)N2Cc2ccccc2C)cc1COc1ccc(NC(C)=O)cc1 (stereo not drawn) [Structure 281] | 5.62 | 22.00 |  |  |
| COc1ccc(C2Nc3ccccc3C(=O)N2Cc2ccccc2)cc1COc1ccc(NC(C)=O)cc1 (single isomer, unassigned) [Structure 56] |  | 110.90 |  | AC50 (AC50, HTRF cAMP): 11.2 µM |
| COc1ccc(C2Nc3ccccc3C(=O)N2Cc2ccco2)cc1COc1ccccc1 (stereo not drawn) [Structure 266] |  |  | inactive |  |
| COc1ccc(C2Nc3ccccc3C(=O)N2Cc2ccco2)cc1COc1c(C)cccc1C (stereo not drawn) [Structure 284] |  |  | inactive |  |
| COc1ccc(C2Nc3ccccc3C(=O)N2Cc2ccccc2)cc1COc1ccc(C)cc1 (stereo not drawn) [Structure 196] |  |  | inactive |  |
| COc1ccc(CN(Cc2ccccc2)C(=O)c2ccc(O)cc2)cc1COc1ccc(NC(C)=O)cc1 [Structure 73] | 28.2 | 75.04 |  |  |
| COc1ccc(CN2C(=O)c3ccccc3NC2c2ccc(OC)c(COc3ccc(NC(C)=O)cc3)c2)cc1 (stereo not drawn) [Structure 30] | 3.16 | 63.65 |  |  |
| COc1ccc(C2Nc3ccccc3C(=O)N2Cc2ccccc2)cc1OCc1ccc(NC(C)=O)cc1 (stereo not drawn) [Structure 228] |  |  | inactive |  |
| COc1ccc(C2Nc3ccccc3C(=O)N2Cc2ccc(Cl)cc2)cc1COc1ccc(NC(C)=O)cc1 (stereo not drawn) [Structure 77] | 3.16 | 68.63 |  |  |
| COc1ccc(C2Nc3ccccc3C(=O)N2Cc2ccco2)cc1COc1ccc(NC(C)=O)cc1 (stereo not drawn) [Structure 20] | 14.1 | 156.28 |  |  |
